Data set [1] in a line: Clinical plasma pharmacokinetics in patients, plasma concentration limit calculation. The note with it: average plasma concentration calculated from AUC0-24h in patients. The format is in vivo. How it is done:
To select for clinically relevant doses, the clinically attainable drug concentration measured in the blood plasma of patients after treatment is used to calculate the concentration limit for in vitro experiments. […] The average drug concentration is calculated from the AUC0–24h and is implemented as the plasma concentration limit (PCL) which drug dose selection must remain below for in vitro experiments. If a drug is FDA approved, the AUC0–24h selected is the one corresponding to the recommended dose in clinical practice. If a drug is in clinical trials, the AUC0–24h selected is the one corresponding to the maximum tolerated dose in early stage clinical trials. Note, experiments were conducted with the most current PCL calculated from the AUC0–24h information available at the start of experiments (December 2017), see Table S4.

The conditions of data set [2]: 0-24h, oral, cited from earlier work.
A further data set concerns SW620 tumors. The data set can be described thus: Subcutaneous xenograft tumor growth. The format is in vivo, Swiss nu/nu mice. How it is done: All procedures including animal use were performed in accordance with the Institutional Ethical Committee of Animal Care in Geneva and the Swiss Cantonal Veterinary Office (Authorization number GE‐136‐19). Briefly, female and male Swiss nu/nu mice aged 6–8 weeks were obtained from Charles River (Écully, France). For subcutaneous xenografts mice were inoculated in the left flank with 5x10^6 DLD1 or SW620 cells suspended in 100 µL of cell culture medium, supplemented with 1% FBS. Treatment was initiated when palpable tumors had formed (approximately 30 mm^3) on day 4 for DLD1 and day 5 for the SW620 model.
Treatment was initiated once tumor growth was confirmed with bioluminescence measurements. Drugs were administered through oral gavage based on average body weight of the males (100 µL/mouse) and females (80 µL/mouse) at various concentrations, see Tables S10 and S11.
Solution A: step (1) 30% PEG 400 + 5% propylene glycol + 0.5% Tween 80 and (2) 64.5% sterile H2O. Solution B: step (1) 10% DMSO, (2) 30% PEG 300 + 5% Tween 80 and (3) 55% sterile H2O. Vemurafenib was prepared 2x concentrated (half or three/sixth of total solution), and the remaining drugs were prepared 6x concentrated (one/sixth of total solution), after which drugs were diluted to prepare 1x drug concentrations for the ODC or single drugs using the other drugs or complete solvent solutions without drugs for lower concentrations. FOLFOX was administered as 6 mg/kg oxaliplatin two hours before administration of 90 mg/kg leucovorin and 50 mg/kg (DLD1) or 25 mg/kg (SW620) 5‐fluorouracil at day 1 and a repeat of 5‐fluorouracil dosing on day 2.
The Bliss independence model can be used to evaluate the drug interaction potential of a drug mixture. The model is based on the principle that each drug has an independent drug mechanism of action, but all contribute to a common result (e.g., cell death or tumor volume inhibition). The model is based on the probability theory and requires the drug activity of each drug at the selected dose to predict the inhibition rate (IR) at additive doses. For in vivo tumor volume results, we predicted the IR based on the fraction of tumor volume remaining after single‐drug treatment of each of the drugs vs 100% CTRL (F1,2,3,4), using the following formula: IR = […].

Data set [3] can be described thus: Pharmacokinetics, dried blood spot LC-MS/MS, mice with SW620 tumors. The format is in vivo. The note with it: for Tmax / AUC(0-t) / Cmax: Swiss Nu/nu, mouse, whole blood (dried blood spot), po, 10 mg/kg, regorafenib 30, vemurafenib 75, GDC-0994 10 mg/kg; for AUC(0-t) / Cmax: whole blood, mean ± SD; for AUC(0-t): oral, read-out: AUC0-24h. How it is done:
The pharmacokinetic (PK) study was performed using the dried blood spot method. Mice were treated with CTRL, ODCs, and corresponding monotherapies as described above. To determine the disposition in blood in the first 24h, blood samples (5 µL/mouse) were collected from the tail vein (n = 4 mice) at 2h, 4h, 8h, and 24h time points and transferred onto paper (a filter paper 903 protein saver card from Whatman (MA, USA)). A disk with the entire spot was punched from the paper card and transferred to the HPLC vial tube. Hundred µL of MeOH containing a mix of internal standards was added, and the tube was vortex‐mixed for about 1 min before injecting 10 µL into the LC‐MS/MS system. The LC‐MS/MS system consisted of an API 4,000 triple quadrupole mass spectrometer (AB sciex, Concord, ON, Canada) controlled by analyst 1.6.1 software. The mass spectrometer was operated in the multiple reaction monitoring (MRM) mode with positive electrospray ionization. The instrument was coupled with an Agilent series 1100 (Waldbronn, Germany) LC system. Chromatography was performed on a Phenomenex Kinetex C18 analytical column (50 mm x 2.1 mm, 2.6 um; Torrance, CA, USA). The flow rate was 0.5 mL/min using gradient elution conditions. The method was fully validated before application to this pharmacokinetic study.

Data set [4] is described as follows: Serum and intratumor drug concentration at experimental endpoint, SW620 model. The format is in vivo, mice. The note with it: for concentration at 1 h / Kp at 1 h: Swiss Nu/nu, mouse, oral; for concentration at 1 h: 1h post-treatment at endpoint (day 19); for Kp at 1 h: tumor vs serum, read-out: ratio tumor vs serum; for Kp at 1 h / ratio ODC vs single drug: SW620 model. As for the experimental part: At the experimental endpoint, plasma and tumors were collected 1h post‐treatment and part of the tumor tissue was used to determine the intratumor drug concentrations. Plasma and tumor samples were analyzed using the same LC‐MS/MS method used for drug determination in DBS. Before analysis, tumor tissues were homogenized in a 1 mL mixture of water/acetonitrile (30/70). Hundred uL of homogenates were transferred into new tubes and 50 µL of acetonitrile, as well as 50 µL of a mix of internal standards in MeOH were added. Tubes were vortexed and centrifuged for 10 min at 9,000 rpm. The supernatant (100 µL) was evaporated under nitrogen and reconstituted in 100 µL of acetonitrile with 0.1% formic acid/water with 0.1% formic acid (30/70). 10 µL was then injected into the LC‐MS/MS system. Plasma samples were spotted onto the same paper used for whole blood analysis and were extracted and analyzed using the same methods as used for DBS.

The mark [5] stands for this setting: GDC-0994 10 mg/kg, Exp 6, Day 20.
The mark [6] stands for this setting: GDC-0994 10 mg/kg, Exp 8, Day 19.
Setting [7] is: GDC-0994 20 mg/kg, Exp 4, Day 22.
Where [8] appears, read: given as part of SW620-specific ODC.

Several values for one entry are separate records, joined by “and”; a condition that tells them apart may be missing. Identical values can stand only once. Like-named read-outs stand apart in the source and are kept apart here.

For `O=C(CCCCCCC(=O)Nc1ccccc1)NO` [vorinostat], the “PCL (plasma concentration limit)” value in data set [1] is 0.19 µM and 0.2 µM. Also, in data set [2] (200 mg/kg twice daily), the AUC was 4.61 µM·h.
For `Cn1c(=O)n(-c2ccc(C(C)(C)C#N)cc2)c2c3cc(-c4cnc5ccccc5c4)ccc3ncc21` [BEZ-235], the AUC in data set [2] (400 mg/kg once daily, ref 16) is 741.3 ng·h/mL; in data set [2] (400 mg/kg once daily, ref 17) it was 1404.4 ng·h/mL.
As for `Clc1ccc(Nc2nnc(Cc3ccncc3)c3ccccc23)cc1` [vatalanib], in data set [1], the “PCL (plasma concentration limit)” value was 8.31 µM and 8.3 µM. Moreover, the AUC is 52900 ng·h/mL in data set [2] (1,000 mg/kg once daily) and 69200 ng·h/mL in data set [2] (1,200 mg/kg once daily).
Consider `CC1(COc2ccc3c(c2)ncn3-c2ccc3cccc(N4CCC(N)CC4)c3n2)COC1` [crenolanib], for which the “PCL (plasma concentration limit)” value in data set [1] is 0.43 µM and 0.4 µM. Besides, the AUC in data set [2] (100 mg/kg twice daily) was 3200 ng·h/mL; in data set [2] (200 mg/kg once daily), 4610 ng·h/mL.
With `Cn1nccc1Nc1nccc(-c2ccn([C@H](CO)c3ccc(Cl)c(F)c3)c(=O)c2)n1` [GDC-0994, (S)-1-(1-(4-Chloro-3-fluorophenyl)-2-hydroxyethyl)-4-(2-((1-methyl-1H-pyrazol-5-yl)amino)pyrimidin-4-yl)pyridin-2(1H)-one], the “% CTRL (tumor volume)” value is recorded as 56 33 15 % CTRL in the data set with SW620 tumors (setting [5]), 56 18 7 % CTRL in the data set on SW620 tumors (setting [6]) and 62 31 22 % CTRL in the data set with SW620 tumors (setting [7]). For the same compound, the Volume is 290 170 76 mm^3 in the data set with SW620 tumors (setting [5]), 354 114 46 mm^3 with SW620 tumors (setting [6]) and 301 148 105 mm^3 in the data set on SW620 tumors (setting [7]). Also, the time to peak (Tmax) in data set [3] (setting [8]) and in data set [3] (mono) was 2 h in each case. The AUC(0-t) in data set [3] (setting [8]) worked out at 45000 ± 9090 ng·h/mL; in data set [3] (mono), 31600 ± 4740 ng·h/mL. The figures for the Cmax in data set [3] (setting [8]) and in data set [3] (mono) were 6610 ± 1110 ng/mL and 6090 ± 1930 ng/mL, respectively. For the same compound, the “increase of AUC as part of the ODC vs single-drug treatment” value in data set [3] (mice bearing SW620 tumors, AUC0-24h) was 1.4 x. Further, the concentration at 1 h turned out to be 19400 ± 9390 ng/mL in data set [4] (serum, 10 mg/kg, as part of ODC, regorafenib 30, selumetinib 0.2, vemurafenib 75, GDC-0994 10 mg/kg, read-out: concentration serum); 15900 ± 9070 ng/mL in data set [4] (serum, 10 mg/kg, single drug, regorafenib 30, selumetinib 0.2, vemurafenib 75, GDC-0994 10 mg/kg, read-out: concentration serum); 5560 ± 3000 ng/g in data set [4] (tumor (SW620), as part of ODC, SW620 tumor, doses as E164, read-out: concentration tumor); 12700 ± 2870 ng/g in data set [4] (tumor (SW620), single drug, SW620 tumor, doses as E164, read-out: concentration tumor). For the same compound, the Kp at 1 h in data set [4] (as part of ODC) amounted to 0.29; in data set [4] (single drug), 0.8. Further, the “ratio ODC vs single drug” value in data set [4] (serum) stood at 1.22; in data set [4] (tumor), 0.44. Moreover, in data set [1], the “PCL (plasma concentration limit)” value was 2.02 µM and 2.0 µM.

As usually defined, the AUC is the area under the concentration-time curve, a measure of exposure. A word on the Tmax: it is the time from dosing to the highest level. As a reminder, the Cmax is the maximum level reached in the sampled fluid or tissue.
